Source: publication PMC7822874, “Chemoprotective antimalarials identified through quantitative high-throughput screening of Plasmodium blood and liver stage parasites” (Scientific Reports, 2021)
Like-named read-outs stand apart in the source and are kept apart here.

Tests used:
in vitro [1] = conditions: human, hepg2 cells
[2] = test system: Plasmodium falciparum Dd2 asexual blood stage parasites; assay: microbe, parasite or virus in culture; parameters: species or system Plasmodium falciparum Dd2 in human erythrocytes; single determination (one 11-point concentration-response curve); conditions: Plasmodium falciparum, DD2, Erythrocyte, 72 h; read-out: AC50
in vitro [3] = conditions: human, HepG2-A16-CD81EGFP cells, uninfected
[4] = test system: P. berghei-ANKA-GFP-LucCON liver stage parasites in HepG2-A16-CD81EGFP cells; assay: P. berghei liver stage Pb-Luc assay, Method 1 (UCSD, 1536-well); assay type: cell-based, Plasmodium berghei; conditions: for activity at 1 µM / activity at 3 µM / AC50: Plasmodium berghei; for activity at 1 µM / activity at 3 µM: 48 h, average of 2 wells, 1536-well plate; for activity at 1 µM: nominal 1 uM (10 mM stock), […] for 15 mM, 1.2 uM for 12 mM, 2 uM for 20 mM stock; for activity at 3 µM: nominal 3 uM (10 mM stock), 4.5 uM for 15 mM, 3.6 uM for 12 mM, 6 uM for 20 mM stock; for AC50: Method 1
HepG2-A16-CD81EGFP cells = conditions: for HepG2 viability signal, 1 uM, repeat 2: nominal 1 uM (10 mM stock), […] for 15 mM, 1.2 uM for 12 mM, 2 uM for 20 mM stock; for HepG2 viability signal, 1 uM, repeat 2 / HepG2 viability signal, 3 uM, repeat 2: average of 2 wells; for HepG2 viability signal, 3 uM, repeat 2: nominal 3 uM (10 mM stock), 4.5 uM for 15 mM, 3.6 uM for 12 mM, 6 uM for 20 mM stock; for Average HepG2 3 µM response( %): averaged response (percent)
[5] = test system: luciferase-expressing P. berghei liver stage parasites in HepG2 cells; assay: Inhibition of liver-stage development assay (ILSDA), Method 2 (WRAIR, 96-well); assay type: cell-based, Plasmodium berghei; conditions: Method 2, dose response; for AC50: Plasmodium berghei, HepG2, P. berghei liver stage
[6] = test system: P. falciparum Dd2 (clone B2) asexual blood stage parasites; assay: P. falciparum Dd2 asexual blood stage SYBR Green-I 72 h proliferation assay (qHTS); assay type: cell-based, Plasmodium falciparum; conditions: Plasmodium falciparum
[7] = test system: P. falciparum Dd2 Cytb G131S; assay: SYBR Green ABS proliferation assay, NCGC00374598 selected clone C11; assay type: cell-based, Plasmodium falciparum; conditions: Plasmodium falciparum, DD2, […]; averaged from three independent replicates; top concentration 29 µM; read-out: Average AC50 (Log[M]), NCGC00374598 clone C11 (Cytb G131S) (converted)
Experimental: As resistance selection studies implicated the parasite cytochrome bc1 complex in mediating reduced parasite susceptibility to both NCGC00473217 and NCGC00374598, we leveraged these drug-selected parasites to test for altered drug response to a panel of antimalarial compounds.
The P. falciparum parasite Dd2 line was cultured in vitro using standard conditions. […] Tissue culture flasks and assay plates were incubated at 37 °C under a gas mixture of 5% CO2, 5% O2 and 90% N2. […] Significant differences were assessed using two-sided Student’s t-tests. All HTS assays were stopped and read at 72 h. Percent response values represent relative growth as judged by SYBR Green-I fluorescence intensity values normalized to controls.
Fresh uninfected RBCs (0.5% hematocrit) were added on day 7 and media was changed every other day. […] Resistant parasites were maintained under drug media at a volume of 50 mL until a high parasitemia (> 5%) was achieved. Aliquots of the bulk resistant cultures were frozen in cryovials before cloning by limiting dilution in 96-well plates (seeded at 0.25 or 0.5 parasites/well)[70]. After 3 weeks of cloning, we screened for positive wells by flow cytometry with SYBR Green-stained cells. […] Parasites were harvested by saponin lysis at the trophozoite stage and genomic DNA was extracted using the QIAamp DNA Blood Midi Kit (Qiagen, Germantown, MD)[71].

[8] = repeat 1, read-out: Pb-Luc signal, 1 uM, repeat 1
[9] = repeat 2, read-out: Pb-Luc signal, 1 uM, repeat 2
[10] = repeat 3, read-out: Pb-Luc signal, 1 uM, repeat 3
[11] = repeat 1, read-out: Pb-Luc signal, 3 uM, repeat 1
[12] = repeat 2, read-out: Pb-Luc signal, 3 uM, repeat 2
[13] = repeat 3, read-out: Pb-Luc signal, 3 uM, repeat 3
[14] = DD2, Dd2 parental, Hill fit, averaged from three independent replicates, top concentration 29 µM, read-out: Average AC50 (Log[M]), Dd2 (converted)

`Cc1csc(Nc2ccc3c(n2)CN(Cc2ccccc2C)C(=O)CO3)n1` [NCGC00413860-01] gave a CC50 at 48 h (in vitro [1]) of over 57 µM and an AC50 [2] of 19.3 µM.

`O=C(c1ccc(-c2ncc3cnc(-c4cccc(F)c4)cn23)cc1)N1CCc2cccnc21` [NCGC00414026-01] showed a CC50 at 48 h (in vitro [1]) of over 57 µM.

For `O=c1c2nc(-c3cccc(O)c3)ccc2ncn1C1CC1` [NCGC00414734-01], the CC50 at 48 h (in vitro [1]) was over 57 µM.

`Cc1noc(C)c1-c1cc2c(cc(-c3ccccc3)n2C)c(-c2ccnn2C)n1` [NCGC00417162-01] showed a CC50 at 48 h (in vitro [1]) of over 57 µM and an AC50 [2] of 8.63 µM.

For `Cc1nn2c(c1-c1ccccc1-c1ccccc1)N(Cc1cccc(O)c1)CCC2` [NCGC00420293-01], the CC50 at 48 h (in vitro [1]) was over 57 µM and the AC50 [2] was 4.85 µM.

`Cc1nn2c(c1-c1ccccc1Oc1ccccc1)N(Cc1cccc(O)c1)CCC2` [NCGC00420295-01] gave a CC50 at 48 h (in vitro [1]) of over 57 µM and an AC50 [2] of 10.9 µM.

In the case of `Cc1nn2c(c1-c1ccccc1[S+](C)(=O)[O-])N(Cc1ccc(C(=O)O)s1)CCC2` [NCGC00420344-01], the CC50 at 48 h (in vitro [1]) is reported as over 57 µM and the AC50 [2] is reported as 7.69 µM.

Compound `Cc1nn2c(c1-c1ccccc1C(C)C)N(CCC(C)C)CCC2` [NCGC00420439-01] has a CC50 at 48 h (in vitro [1]) of over 57 µM and an AC50 [2] of 2.17 µM.

Work on `Cc1nn2c(c1-c1ccccc1Oc1ccccc1)N(Cc1ccccc1O)CCC2` [NCGC00420455-01] yielded a CC50 at 48 h (in vitro [1]) of over 57 µM, an AC50 [2] of 4.85 µM and a viability at 48 h, 1 µM (in vitro [3]) of 104%. For the same compound, the viability at 48 h, 3 µM (in vitro [3]) was 115%, the activity at 1 µM [4, 8] was 75.6% and the activity at 1 µM [4, 9] was 75%. For the same compound, the activity at 1 µM [4, 10] was 78.3%, the activity at 3 µM [4, 11] was 1.18% and the activity at 3 µM [4, 12] was 4.89%. It also gave an activity at 3 µM [4, 13] of 23.7%, an AC50 ([4]; Hill fit, 50% of maximum activity response, read-out: AC50) of 1410 nM and an AC50 ([4]; log10 of molar AC50 from Hill fit, read-out: Log AC50 (converted)) of 1410 nM. For the same compound, the “HepG2 viability signal, 1 uM, repeat 2” value (HepG2-A16-CD81EGFP cells) was 99.80% and the “HepG2 viability signal, 3 uM, repeat 2” value (HepG2-A16-CD81EGFP cells) was 116.91%.

In the case of `Cc1nn2c(c1-c1ccccc1OCc1ccccc1)N(Cc1ccccc1)CCC2` [NCGC00420471-01], the CC50 at 48 h (in vitro [1]) is reported as over 57 µM and the AC50 [2] is reported as 15.3 µM.

For `COc1ccc(N2CCN(c3cc(C4CC(N)C4)nc(N)n3)CC2(C)C)cc1` (stereo not shown) [NCGC00422579-01], the CC50 at 48 h (in vitro [1]) was over 57 µM, the AC50 [2] was 2.99 µM and the viability at 48 h, 1 µM (in vitro [3]) was 103%. The viability at 48 h, 3 µM (in vitro [3]) was 102%, the activity at 1 µM [4, 8] was 82.6% and the activity at 1 µM [4, 9] was 91.8%. For the same compound, the activity at 1 µM [4, 10] was 99.3%, the activity at 3 µM [4, 11] was 76.6% and the activity at 3 µM [4, 12] was 88.5%. For the same compound, the activity at 3 µM [4, 13] was 81.6%, the “HepG2 viability signal, 1 uM, repeat 2” value (HepG2-A16-CD81EGFP cells) was 102.33% and the “HepG2 viability signal, 3 uM, repeat 2” value (HepG2-A16-CD81EGFP cells) was 97.69%.

`COc1ccc(-c2cc3nc4c(c(=O)n3[nH]2)CN(C(=O)c2ccc(Cc3c(C)noc3C)o2)CC4)cc1` [NCGC00440331-01] showed a CC50 at 48 h (in vitro [1]) of 0.685 µM.

In the case of `O=c1[nH]c(N2CCOCC2)nc2c1CCN(Cc1ccc(Cl)cc1F)CC2` [NCGC00440653], the “Activity direction (Decrease / Inactive)” value ([5]; P. berghei liver stage) is reported as “Decrease”, the AC50 ([5]; read-out: AC50) is reported as 112 nM and the AC50 ([5]; read-out: Log AC50 (converted)) is reported as 112 nM. The “Average P. berghei 3 µM response( %)” value ([4]; P. berghei liver stage, 3 µM dose, averaged response (percent)) was 41%, the “Average P. berghei 1 µM response (%)” value ([4]; P. berghei liver stage, the header list (r8) defines it as the 1 µM dose, averaged response (percent)) was 39% and the “Average HepG2 3 µM response( %)” value (HepG2-A16-CD81EGFP cells; HepG2, 3 µM dose) was 102%. For the same compound, the “Average HepG2 3 µM response( %)” value (HepG2-A16-CD81EGFP cells; HepG2, the header list (r10) describes it as the 1 µM dose) was 102% and the AC50 ([6]; DD2, averaged P. falciparum asexual blood stage potency, log10 of AC50 in M, read-out: Pf ABS Log AC50 (converted)) was 3.35e-06 M.

In the case of `CCCN1C(CC(C)C)=N[S+](=O)([O-])c2cc(NC(=O)C(=O)OCC)ccc21` [NCGC00521135-01], the AC50 [7] is reported as 7.96e-06 M and the AC50 [6, 14] is reported as 1.59e-05 M.

Compound `CCCN1C(CC(C)C)=N[S+](=O)([O-])c2cc(N[S+](=O)([O-])c3ccccc3)ccc21` [NCGC00521146-01] has an AC50 [7] of 7.1e-06 M and an AC50 [6, 14] of 7.96e-06 M.
